Test results from PubChem BioAssay AID1963832 (Molecular Pharmacology Branch, DTP, NCI, 2024).
pIC50: −log10 of the molar value. Several values for one entry are separate records, joined by “and”; a condition that tells them apart may be missing. Equal entries are not always repeated.

Test system: 885724-159-R-J1-PDC complex spheroid viability
Assay: Anticancer human tumor 885724-159-R-J1-PDC patient-derived pancreatic adenocarcinoma cell line growth inhibition [POLQ]
Conditions: for viability, T/C: stronger effect = lower value
Description: Multicellular complex tumor spheroid response to Polymerase (POL) inhibitors (novobiocin, ART-558, RP6685) in combination with a variety of drugs and investigational agents in selected tumor cell lines
The POL inhibitors (novobiocin, ART-558, and RP6685) were evaluated both individually and in combination with standard of care and investigational anticancer small molecules within a complex spheroid model of solid tumors. . Complex spheroids include a stromal component modeled by human endothelial cells (HUVEC) and fibroblasts modeled by human mesenchymal stem cells (MSCs). The concentration ranges selected for each drug and investigational agent were based upon clinically achievable concentrations if the clinical Cmax of the agent was known.
Compounds. The drugs and investigational agents: novobiocin (NSC847541), ART-558 (NSC835418), RP-6685 (NSC848927), peposertib (NSC802822), ceralasertib (NSC780249), elimusertib (NSC800525), camonsertib (NSC841442), AZD-1390 (NSC803789), olaparib (NSC753686), talazoparib (NSC767125), rucaparib (NSC756644), sotorasib (NSC818433), MRTX-1133 (NSC836407), SN-38 (NSC673596), topotecan (NSC609699), epotoside (NSC141540), doxorubicin (NSC123127), gemcitabine (NSC613327), 5-fluorouracil (NSC19893), paclitaxel (NSC125973), vemurafenib (NSC761431), MSA-2 (NSC828583), SN-011 (NSC837082), adavosertib (NSC754352), prexasertib (NSC758257), carboplatin (NSC241240) and oxaliplatin (NSC266046), were obtained from the National Cancer Institute (NCI) Developmental Therapeutics Program Chemical Repository (21). The FDA-approved anticancer drug set is available from the Developmental Therapeutics Program at https://dtp.cancer.gov/organization/dscb/obtaining/. […] The stock solutions were prepared in dimethyl sulfoxide (DMSO, Sigma-Aldrich, St. Louis, MO, cat. D2650), except for the platinum compounds which were prepared in saline (Quality Biological, Gaithersburg, MD, cat. 114-055-101), at 800-fold the tested concentration and stored at -70 degrees C prior to their use. All drugs and investigational agents were tested over a range starting from a high concentration at or near the clinical Cmax and decreasing in half-log increments. If the clinical Cmax for an agent had not been determined, the highest concentration tested was 10 microM, except for SN-38, which was tested at a high concentration of 1 microM.
Cell Culture. All cells were maintained in an incubator at 37 degrees C and 5% CO2 with 95% humidity. The PDC lines were cultured according to standard operating procedures established by the NCI PDMR (https://pdmr.cancer.gov). Table 3 of the manuscript, lists the cell lines along with the number of the three cell types plated to form the mct-spheroids and media for tumor cell growth. After thawing, all PDC lines, except 997537-175-T-J1-PDC and 415267-285-R-J2-PDC, were cultured in Matrigel-coated flasks prepared with a working solution of 1X Ham's F-12 nutrient mix, without supplementation (Thermo Fisher Scientific, cat. 11765054), 100 U/mL penicillin-streptomycin (Thermo Fisher Scientific, cat. 15140122), and 2.5% Matrigel (Corning Inc., Corning, NY, cat. 354248) for the first three passages. The two PDC lines 997537-175-T-J1-PDC and 415267-285-R-J2-PDC were cultured on uncoated flasks. The 857933-349-R-J2-PDC line was cultured in 6C/Colon 1B media containing advanced DMEM/F-12 (Thermo Fisher Scientific, cat. 12634028), 10 mM HEPES (Thermo Fisher Scientific, cat. 15630080), 1X GlutaMAX supplement (Thermo Fisher Scientific, cat. 35050061), 0.1 mg/mL primocin (InvivoGen, San Diego, CA, cat. ant-pm-2), 10% defined fetal bovine serum, heat inactivated (HyClone Laboratories Inc., Logan, UT, cat. SH30070.03HI), 50% L-WRN conditioned media (ATCC, cat. CRL-3276), 1.25 mM N-Acetyl-L-cysteine (Sigma-Aldrich, cat. A9165), 10 mM nicotinamide (Sigma-Aldrich, cat. N0636), 1X B-27 supplement (Thermo Fisher Scientific, cat. 17504044), 1X N-2 supplement (Thermo Fisher Scientific, cat. […]

[1] = compound alone, run of 11/27/2023
[2] = compound alone, run of 12/05/2023
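Also: spheroids exposed to compounds for 7 days.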

pIC50 [2]	Structure (SMILES)	viability, T/C (compound 0.00316 µM)	viability, T/C (compound 0.01 µM)	viability, T/C (compound 0.0316 µM)	viability, T/C (compound 0.1 µM)	viability, T/C (compound 0.316 µM)	viability, T/C (compound 1 µM)	pIC50 (curve of compound)	viability, T/C (compound 0.00949 µM)	viability, T/C (compound 0.03 µM)	viability, T/C (compound 0.0949 µM)	viability, T/C (compound 0.3 µM)	viability, T/C (compound 0.949 µM)	viability, T/C (compound 3 µM)	viability, T/C (compound 0.000316 µM)	viability, T/C (compound 0.001 µM)	viability, T/C (compound 3.16 µM)	viability, T/C (compound 10 µM)	pIC50 [1]
	C=CCn1c(=O)c2cnc(Nc3ccc(N4CCN(C)CC4)cc3)nc2n1-c1cccc(C(C)(C)O)n1	96.5% and 99.3% and 105%	95.4% and 94.4% and 90.4%	93.3% and 87.4% and 93.7%	85.1% and 77.1% and 79.6%	55.8% and 56.4% and 55.1%	44.7% and 48.3% and 49.7%	6.24 and 6.12 and 6.07											
	CC(=O)O[C@H]1C(=O)[C@@]2(C)[C@H]([C@H](OC(=O)c3ccccc3)[C@]3(O)C[C@H](OC(=O)[C@H](O)[C@@H](NC(=O)c4ccccc4)c4ccccc4)C(C)=C1C3(C)C)[C@]1(OC(C)=O)CO[C@@H]1C[C@@H]2O							< 5.52	65.2% and 64.9% and 66%	56.1% and 54% and 50.9%	56.4% and 63.5% and 54.9%	63.1% and 64.1% and 57.5%	67.5% and 71.9% and 63.7%	68.5% and 70.2% and 60.7%					
	CC[C@@]1(O)C(=O)OCc2c1cc1n(c2=O)Cc2cc3c(CN(C)C)c(O)ccc3nc2-1	98.8% and 97.1% and 92.2%	89.7% and 86.8% and 86.5%	80.4% and 78.2% and 74.8%	57.3% and 62.5% and 57.7%			< 7.00							97.3% and 109% and 93.8%	102% and 92% and 99%			
	CCc1c2c(nc3ccc(O)cc13)-c1cc3c(c(=O)n1C2)COC(=O)[C@]3(O)CC	76.2% and 80.4% and 69%	56% and 61.6% and 54.3%	53.4% and 55% and 47.8%	47.3% and 54.5% and 50.5%	32% and 33.2% and 35.3%	5.28% and 5.56% and 4.88%	7.26 and 7.05 and 7.18											
	CNCc1ccc(-c2[nH]c3cc(F)cc4c3c2CCNC4=O)cc1			109% and 96.8% and 102%	102% and 92.6% and 112%	88.9% and 91.8% and 107%	87.8% and 98.4% and 99.9%	< 5.00									89.9% and 93.1% and 107%	93% and 91% and 83.8%	
	COC1C(OC(N)=O)C(O)C(Oc2ccc3c(O)c(NC(=O)c4ccc(O)c(CC=C(C)C)c4)c(=O)oc3c2C)OC1(C)C (stereo not given)			94.1% [middle of 13 runs]	95.9% [middle of 13 runs]	98.5% [middle of 13 runs]	98.8% [middle of 12 runs]										98.5% [middle of 13 runs]	106% [middle of 13 runs]	< 5.00
	COc1cc(C2c3cc4c(cc3C(OC3OC5COC(C)OC5C(O)C3O)C3COC(=O)C23)OCO4)cc(OC)c1O (stereo not given)			94.8% and 95.3% and 106%	86.5% and 92.2% and 82.3%	75.8% and 85.9% and 68.5%	64.5% (2×) and 73%	5.09 and < 5.00 and 5.34									58.4% and 57.7% and 55.9%	48% and 53.2% and 42.6%	
	COc1cccc(OCCCN)c1-c1cc(Nc2cnc(C#N)cn2)n[nH]1	62.5% and 76.4% and 69.2%	46.4% and 49.5% and 54.3%	45.3% and 44.2% and 49.7%	42.2% and 45.4% and 51.1%	44.9% and 42.6% and 47%	44.4% and 47.1% and 48%	8.11 and 8.01 and 7.49											
	COc1cccc2c1C(=O)c1c(O)c3c(c(O)c1C2=O)CC(O)(C(=O)CO)CC3OC1CC(N)C(O)C(C)O1 (stereo not given)			72.9% and 74.1% and 66.6%	54.6% and 56% and 97.5%	30.8% and 36.2% and 31.9%	11.2% and 13.3% and 8.99%	6.89 and 6.84 and 6.68									5.6% and 5.49% and 5.32%	7.5% and 6.14% and 6.82%	
< 5.00	Cc1cccc(N(C)C(=O)C2C(O)CCN2c2nc(C)cc(C(F)(F)F)c2C#N)c1 (stereo not given)			96.2% [middle of 13 runs]	97.6% [middle of 13 runs]	102% [middle of 13 runs]	100% [middle of 13 runs]										99.2% [middle of 13 runs]		< 5.00
	Cn1ncnc1[C@H]1c2n[nH]c(=O)c3cc(F)cc(c23)N[C@@H]1c1ccc(F)cc1	91.6% and 90.1% and 98.2%	103% and 94.9% and 99.3%	97.7% and 93.4% and 103%	83.7% and 84.4% and 85.2%			< 7.00							96.8% and 84.9% and 99.5%	94.3% and 95.2% and 99.7%			
< 5.00	Nc1ccc(C#CCN(C(=O)Cc2ncc(C(F)(F)F)cc2C(F)(F)F)c2ccc(F)cc2)nn1			94.8% [middle of 13 runs]	93.2% [middle of 13 runs]	97% [middle of 13 runs]	96.2% [middle of 13 runs]										97.6% [middle of 13 runs]	105% [middle of 12 runs]	
	Nc1ccn(C2OC(CO)C(O)C2(F)F)c(=O)n1 (stereo not given)			62.8% and 66.8% and 60.1%	51.6% and 57% and 53.9%	50.6% and 51% and 51.5%	51.7% and 53% (2×)	6.25 and 5.94 and 5.36									51.6% and 53.4% and 54.6%	46% and 42.3% and 39.7%	
	O=C(c1cc(Cc2n[nH]c(=O)c3ccccc23)ccc1F)N1CCN(C(=O)C2CC2)CC1			103% and 105% (2×)	97.6% and 102% and 98%	97.1% and 109% and 95.8%	94% and 107% and 93.8%	< 5.00									93.9% and 95.7% and 87.6%	78.1% and 78.9% and 82.2%	
	O=c1[nH]cc(F)c(=O)[nH]1			98.3% and 96.3% and 103%	102% and 95.3% and 108%	103% and 89.2% and 105%	87.9% and 98.7% and 102%	< 5.00									87.6% and 89.9% and 91.7%	75% and 75.8% and 71.4%	
